Source: patent publication US11000033B2, “Ketone or oxime compound, and herbicide” (NISSAN CHEMICAL CORPORATION, priority 2014, dated 2021)

Columns and labels:
Type in all cases: in vivo
Apera spica-venti [1] = test: Test Example 4: herbicidal effect by soil treatment (symbol L); settings: application herbicide amount 320 g/ha
Outline: (§1)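 Seeds were sown in sterilized diluvial soil, covered with about 1.5 cm of soil, and the soil surface was sprayed with a water-diluted emulsion of the compound at a predetermined rate. Plants grew in a greenhouse at 25° C. to 30° C.; effects were scored visually 3 weeks after application.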

Scirpus juncoides = test: Test Example 1: herbicidal activity, application before weed generation in submerged conditions (symbol B); settings: application herbicide amount 320 g/ha
Outline: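 Scores run 0 to 5 by herbicidal ratio, with 5 meaning 90% or more and 0 meaning 5% or lower, read 3 weeks after treatment. Compound was applied as a diluted emulsion to the water surface of submerged alluvial-soil pots on the day weed seeds were sown.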

Avena fatua [2] = test: Test Example 5: herbicidal effect by foliage application, plastic box (symbol I); settings: 320 g/ha, 3 weeks after application
Outline: (§2)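 Seeds were sown in sterilized diluvial soil, covered with about 1.5 cm of soil and grown 14 days in a greenhouse at 25° C. to 30° C. An emulsifiable formulation diluted in water to a set rate was sprayed over foliage, and injury was scored 3 weeks later.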

[3] = system: Echinochloa crus-galli var. crus-galli; test: Test Example 5: herbicidal effect by foliage application, plastic box (symbol H); settings: 320 g/ha, 3 weeks after application
Outline: as §2

Galium spurium [4] = test: Test Example 4: herbicidal effect by soil treatment (symbol Q); settings: application herbicide amount 320 g/ha
Outline: as §1

beet = test: Test Example 5: effect on crop by foliage application, plastic box (symbol f); settings: 320 g/ha, 3 weeks after application
Outline: (§3)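 Greenhouse culture at 25° C. to 30° C. followed spot-like sowing into sterilized diluvial soil, with seed covered by roughly 1.5 cm of soil.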

Abutilon theophrasti = test: Test Example 5: herbicidal effect by foliage application, plastic box (symbol M); settings: 320 g/ha, 3 weeks after application
Outline: as §2

Avena fatua [5] = test: Test Example 4: herbicidal effect by soil treatment (symbol I); settings: application herbicide amount 320 g/ha
Outline: as §1

Setaria viridis = test: Test Example 4: herbicidal effect by soil treatment (symbol G); settings: application herbicide amount 320 g/ha
Outline: as §1

soybean = test: Test Example 4: effect on crop by soil treatment (symbol d); settings: application herbicide amount 320 g/ha
Outline: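 Greenhouse culture at 25° C. to 30° C. followed sowing of seed in spots on sterilized diluvial soil with a soil cover close to 1.5 cm thick.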

Amaranthus retroflexus = test: Test Example 4: herbicidal effect by soil treatment (symbol N); settings: application herbicide amount 320 g/ha
Outline: as §1

Galium spurium [6] = test: Test Example 5: herbicidal effect by foliage application, plastic box (symbol Q); settings: 320 g/ha, 3 weeks after application
Outline: as §2

Chenopodium album = test: Test Example 5: herbicidal effect by foliage application, plastic box (symbol O); settings: 320 g/ha, 3 weeks after application
Outline: as §2

Digitaria ciliaris = test: Test Example 5: herbicidal effect by foliage application, plastic box (symbol F); settings: 320 g/ha, 3 weeks after application
Outline: as §2

Veronica persica = test: Test Example 5: herbicidal effect by foliage application, plastic box (symbol R); settings: 320 g/ha, 3 weeks after application
Outline: as §2

Leptochloa chinensis = test: Test Example 3: herbicidal effect by foliage application, Wagner pot (symbol D); settings: application herbicide amount 320 g/ha
Outline: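 Scoring took place 3 weeks after application, using fixed criteria. Plants had been raised from seed for 14 days at 25 to 30 °C in submerged alluvial soil before a diluted emulsion of the test compound was sprayed uniformly on the leaves.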

rapeseed = test: Test Example 5: effect on crop by foliage application, plastic box (symbol g); settings: 320 g/ha, 3 weeks after application
Outline: as §3

Apera spica-venti [7] = test: Test Example 5: herbicidal effect by foliage application, plastic box (symbol L); settings: 320 g/ha, 3 weeks after application
Outline: as §2

Stellaria media = test: Test Example 5: herbicidal effect by foliage application, plastic box (symbol P); settings: 320 g/ha, 3 weeks after application
Outline: as §2

Compound	L: Apera spica-venti, herbicidal effect grade (Apera spica-venti [1])	Herbicidal effect grade, B: Scirpus juncoides (Scirpus juncoides)	I: Avena fatua, herbicidal effect (criteria of Test Example 1) (Avena fatua [2])	H: Echinochloa crus-galli var. crus-galli, herbicidal effect (criteria of Test Example 1) [3]	Q: Galium spurium, herbicidal effect grade (Galium spurium [4])	f: beet, effect on crop (criteria of Test Example 1) (beet)	M: Abutilon theophrasti, herbicidal effect (criteria of Test Example 1) (Abutilon theophrasti)	I: Avena fatua, herbicidal effect grade (Avena fatua [5])	G: Setaria viridis, herbicidal effect grade (Setaria viridis)	d: soybean, effect on crop grade (soybean)	N: Amaranthus retroflexus, herbicidal effect grade (Amaranthus retroflexus)	Q: Galium spurium, herbicidal effect (criteria of Test Example 1) (Galium spurium [6])	O: Chenopodium album, herbicidal effect (criteria of Test Example 1) (Chenopodium album)	F: Digitaria ciliaris, herbicidal effect (criteria of Test Example 1) (Digitaria ciliaris)	R: Veronica persica, herbicidal effect (criteria of Test Example 1) (Veronica persica)	herbicidal effect on D (Leptochloa chinensis), grade 0-5 (Leptochloa chinensis)	g: rapeseed, effect on crop (criteria of Test Example 1) (rapeseed)	L: Apera spica-venti, herbicidal effect (criteria of Test Example 1) (Apera spica-venti [7])	P: Stellaria media, herbicidal effect (criteria of Test Example 1) (Stellaria media)	Herbicidal effect grade, L: Apera spica-venti (Apera spica-venti [1])	also measured
CON=C(C)CC1CC(OC(=O)CCCC(C)=O)=C(c2c(C)cc(-c3ccc(Cl)cc3)cc2C)C1=O (stereo not shown) [6-080]	5 (Herbicidal ratio of 90% or more (almost completely withered))	1 (Herbicidal ratio of 5% or higher and lower than 20%)	5 (Herbicidal ratio of 90% or more (almost completely withered))	5 (Herbicidal ratio of 90% or more (almost completely withered))	0 (Herbicidal ratio of 5% or lower (almost no effect))	0 (Herbicidal ratio of 5% or lower (almost no effect))	4 (Herbicidal ratio of 70% or higher and lower than 90%)	0 (Herbicidal ratio of 5% or lower (almost no effect))	5 (Herbicidal ratio of 90% or more (almost completely withered))	0 (Herbicidal ratio of 5% or lower (almost no effect))	1 (Herbicidal ratio of 5% or higher and lower than 20%)	4 (Herbicidal ratio of 70% or higher and lower than 90%)	0 (Herbicidal ratio of 5% or lower (almost no effect))	5 (Herbicidal ratio of 90% or more (almost completely withered))	4 (Herbicidal ratio of 70% or higher and lower than 90%)	5 (Herbicidal ratio of 90% or more (almost completely withered))	3 (Herbicidal ratio of 40% or higher and lower than 70%)	5 (Herbicidal ratio of 90% or more (almost completely withered))	0 (Herbicidal ratio of 5% or lower (almost no effect))		
CC(=O)CC1CC(O)=C(c2c(C)cc(-c3ccc(C(F)(F)F)cc3)cc2C)C1=O (stereo not shown) [7-005]		0 (Herbicidal ratio of 5% or lower (almost no effect))	2 (Herbicidal ratio of 20% or higher and lower than 40%)	5 (Herbicidal ratio of 90% or more (almost completely withered))		0 (Herbicidal ratio of 5% or lower (almost no effect))	0 (Herbicidal ratio of 5% or lower (almost no effect))					0 (Herbicidal ratio of 5% or lower (almost no effect))	3 (Herbicidal ratio of 40% or higher and lower than 70%)	5 (Herbicidal ratio of 90% or more (almost completely withered))	0 (Herbicidal ratio of 5% or lower (almost no effect))	5 (Herbicidal ratio of 90% or more (almost completely withered))	0 (Herbicidal ratio of 5% or lower (almost no effect))	4 (Herbicidal ratio of 70% or higher and lower than 90%)	1 (Herbicidal ratio of 5% or higher and lower than 20%)	0 (Herbicidal ratio of 5% or lower (almost no effect))	Herbicidal effect grade, Q: Galium spurium (Galium spurium [4]): 0 (Herbicidal ratio of 5% or lower (almost no effect)); Herbicidal effect grade, I: Avena fatua (Avena fatua [5]): 0 (Herbicidal ratio of 5% or lower (almost no effect)); Herbicidal effect grade, G: Setaria viridis (Setaria viridis): 0 (Herbicidal ratio of 5% or lower (almost no effect)); Effect on crop grade, d: soybean (soybean): 0 (Herbicidal ratio of 5% or lower (almost no effect)); Herbicidal effect grade, N: Amaranthus retroflexus (Amaranthus retroflexus): 0 (Herbicidal ratio of 5% or lower (almost no effect))
CC(=O)CC1CC(O)=C(c2c(C)cc(C)cc2Br)C1=O (stereo not shown) [7-011]		1 (Herbicidal ratio of 5% or higher and lower than 20%)	3 (Herbicidal ratio of 40% or higher and lower than 70%)	5 (Herbicidal ratio of 90% or more (almost completely withered))		0 (Herbicidal ratio of 5% or lower (almost no effect))	4 (Herbicidal ratio of 70% or higher and lower than 90%)					0 (Herbicidal ratio of 5% or lower (almost no effect))	3 (Herbicidal ratio of 40% or higher and lower than 70%)	4 (Herbicidal ratio of 70% or higher and lower than 90%)	1 (Herbicidal ratio of 5% or higher and lower than 20%)	4 (Herbicidal ratio of 70% or higher and lower than 90%)	4 (Herbicidal ratio of 70% or higher and lower than 90%)	3 (Herbicidal ratio of 40% or higher and lower than 70%)	3 (Herbicidal ratio of 40% or higher and lower than 70%)	3 (Herbicidal ratio of 40% or higher and lower than 70%)	Herbicidal effect grade, Q: Galium spurium (Galium spurium [4]): 0 (Herbicidal ratio of 5% or lower (almost no effect)); Herbicidal effect grade, I: Avena fatua (Avena fatua [5]): 0 (Herbicidal ratio of 5% or lower (almost no effect)); Herbicidal effect grade, G: Setaria viridis (Setaria viridis): 0 (Herbicidal ratio of 5% or lower (almost no effect)); Effect on crop grade, d: soybean (soybean): 0 (Herbicidal ratio of 5% or lower (almost no effect)); Herbicidal effect grade, N: Amaranthus retroflexus (Amaranthus retroflexus): 0 (Herbicidal ratio of 5% or lower (almost no effect))
CON=C(C)CC1CC(OS(=O)(=O)N(C)C)=C(c2c(C)cc(-c3ccc(F)cc3)cc2C)C1=O (mixture of isomers) [6-060]	0 (Herbicidal ratio of 5% or lower (almost no effect))	5 (Herbicidal ratio of 90% or more (almost completely withered))	5 (Herbicidal ratio of 90% or more (almost completely withered))	5 (Herbicidal ratio of 90% or more (almost completely withered))	0 (Herbicidal ratio of 5% or lower (almost no effect))	2 (Herbicidal ratio of 20% or higher and lower than 40%)	5 (Herbicidal ratio of 90% or more (almost completely withered))	0 (Herbicidal ratio of 5% or lower (almost no effect))	5 (Herbicidal ratio of 90% or more (almost completely withered))	0 (Herbicidal ratio of 5% or lower (almost no effect))	5 (Herbicidal ratio of 90% or more (almost completely withered))	4 (Herbicidal ratio of 70% or higher and lower than 90%)	4 (Herbicidal ratio of 70% or higher and lower than 90%)	5 (Herbicidal ratio of 90% or more (almost completely withered))	4 (Herbicidal ratio of 70% or higher and lower than 90%)	5 (Herbicidal ratio of 90% or more (almost completely withered))	5 (Herbicidal ratio of 90% or more (almost completely withered))	5 (Herbicidal ratio of 90% or more (almost completely withered))	4 (Herbicidal ratio of 70% or higher and lower than 90%)		
